Experimental data taken from PubChem BioAssay (NCI).
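Step 1: Grow cells in 96-well plates. Step 2: Expose to compound for 48 hours at 5 concentrations. Step 3: Interpolate endpoints linearly; if unreached, use highest concentration. TGI: concentration producing complete growth inhibition.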

How the values were obtained:
Assay in all cases: growth of human tumour cells (NCI), 48 h
LOX IMVI melanoma = tested on: LOX IMVI melanoma
MDA-MB-231 breast = tested on: MDA-MB-231 breast
RXF 393 renal = tested on: RXF 393 renal
ACHN renal = tested on: ACHN renal
HCT-116 colon = tested on: HCT-116 colon
UO-31 renal = tested on: UO-31 renal
KM12 colon = tested on: KM12 colon
SW-620 colon = tested on: SW-620 colon
HT29 colon = tested on: HT29 colon
HCT-15 colon = tested on: HCT-15 colon
SK-MEL-2 melanoma = tested on: SK-MEL-2 melanoma
TK-10 renal = tested on: TK-10 renal
SN12C renal = tested on: SN12C renal
DU-145 prostate = tested on: DU-145 prostate
NCI-H226 lung = tested on: NCI-H226 lung
OVCAR-5 ovarian = tested on: OVCAR-5 ovarian
SK-OV-3 ovarian = tested on: SK-OV-3 ovarian
MALME-3M melanoma = tested on: MALME-3M melanoma
U251 CNS = tested on: U251 CNS
HOP-62 NSCLC = tested on: HOP-62 NSCLC
SNB-19 CNS = tested on: SNB-19 CNS
MOLT-4 leukemia = tested on: MOLT-4 leukemia
MDA-N = tested on: MDA-N
SF-268 CNS = tested on: SF-268 CNS
SF-295 CNS = tested on: SF-295 CNS
PC-3 prostate = tested on: PC-3 prostate
M14 melanoma = tested on: M14 melanoma
CCRF-CEM leukemia = tested on: CCRF-CEM leukemia
A498 renal = tested on: A498 renal
BT-549 breast = tested on: BT-549 breast
SK-MEL-5 melanoma = tested on: SK-MEL-5 melanoma
UACC-257 melanoma = tested on: UACC-257 melanoma
NCI/ADR-RES ovarian = tested on: NCI/ADR-RES ovarian
T-47D breast = tested on: T-47D breast
UACC-62 melanoma = tested on: UACC-62 melanoma
NCI-H460 lung = tested on: NCI-H460 lung
OVCAR-3 ovarian = tested on: OVCAR-3 ovarian
NCI-H23 lung = tested on: NCI-H23 lung
MCF7 breast = tested on: MCF7 breast
COLO 205 colon = tested on: COLO 205 colon
SR leukemia = tested on: SR leukemia
SF-539 CNS = tested on: SF-539 CNS
EKVX NSCLC = tested on: EKVX NSCLC
HS 578T breast = tested on: HS 578T breast
RPMI-8226 leukemia = tested on: RPMI-8226 leukemia
IGROV1 ovarian = tested on: IGROV1 ovarian
CAKI-1 renal = tested on: CAKI-1 renal
SNB-75 CNS = tested on: SNB-75 CNS
HL-60(TB) leukemia = tested on: HL-60(TB) leukemia
K-562 leukemia = tested on: K-562 leukemia
MDA-MB-435 = tested on: MDA-MB-435
786-0 renal = tested on: 786-0 renal
OVCAR-8 ovarian = tested on: OVCAR-8 ovarian
SK-MEL-28 melanoma = tested on: SK-MEL-28 melanoma
A549 NSCLC = tested on: A549 NSCLC
NCI-H522 lung = tested on: NCI-H522 lung
HCC-2998 colon = tested on: HCC-2998 colon

Measured: TGI

COC(=O)C1=COc2c(n(C)c3ccccc23)-c2ccccc21
not listed: SK-MEL-28 melanoma | A549 NSCLC | NCI-H522 lung | HCC-2998 colon
> 100 µM: all other assays above

COc1cccc(C=C2N=C(C)N(n3c(-c4ccccc4)nc4ccccc4c3=O)C2=O)c1
not listed: RXF 393 renal | SK-MEL-2 melanoma | OVCAR-5 ovarian | MALME-3M melanoma | U251 CNS | NCI/ADR-RES ovarian | OVCAR-3 ovarian
> 100 µM: all other assays above
